{
  "source": "patent US6967034B2",
  "about": "“Herbal-based composition for treating acute and chronic myeloid leukemia” (Council of Scientific and Industrial Research, priority 2002, dated 2005)",
  "format_in_all_cases": "cell-based, human",
  "key": {"AML cells": {"tested_on": "AML cells", "experiment": "Growth inhibition of AML cells in vitro", "conditions": "48 h", "method": "(§1) Whole blood (10 ml) was drawn from a previously diagnosed CD33+ myeloid leukemic patient and mononuclear cells were separated by Ficoll/hypaqal density gradient centrifugation.\n(§2) Incubation of PBMC of myeloid leukemia patients with purified compound 3-O-p-coumaryl quinic acid in vitro. PBMC (2×10^6/ml) of myeloid leukemia patients were incubated with varied concentrations of purified compound for 48 h. Cells were then washed, and counted for viability.\nIncubation of myeloid leukemic cells with fractions having retention time 3.60 (fraction-1) and 24.00 min (fraction 9). PBMC of myeloid leukemic patients were incubated with above-mentioned fractions, alone or in combination of the two for 48 HRs. Cells were then washed and counted for viability."}, "CML cells": {"tested_on": "CML cells", "experiment": "Growth inhibition of CML cells in vitro", "conditions": "48 h", "method": "as §1, §2"}, "[1]": {"tested_on": "CD33+ myeloid leukemia cells", "experiment": "Incubation of PBMC of CD33+ myeloid leukemia patients, viability count and flow cytometry", "conditions": "purified compound, varied concentrations, 48 h", "method": "Preparation of peripheral blood mononuclear cells (PBMC) from CD33+ myeloid leukemia patients ex vivo blood.\nas §1\nIncubation of PBMC of myeloid leukemia patients with crude Piper betel extract. PBMC (2×10^6/ml) of myeloid leukemia patients were incubated with Piper betel extract (10.0 mg/ml) for 48 hours and then washed and counted for viability.\nIncubation of PBMC of myeloid leukemia patients with fraction E in vitro. PBMC (2×10^6/ml) of myeloid leukemia patients were incubated with varied concentrations of fraction E for 48 hours. Cells were then washed and counted for viability.\nas §2\nFlow cytometry of myeloid leukemia cells. Myeloid leukemia cells before and after in vitro incubation with crude Piper betel extract, purified fraction E or purified 3-O-p-coumaryl quinic acid were marked with anti-CD33-FITC and anti-CD13-PE monoclonal antibodies. Cells were then analysed in a flow cytometer (FACS Calibur, Bection Dickinson, USA)"}},
  "data": [
    {"smiles": "O=C(C=Cc1ccc(O)cc1)OC1CC(O)(C(=O)O)CC(O)C1O", "note": "(stereo not drawn) [3-O-p-coumaryl quinic acid]", "values": [
      {"measurement": "Percent inhibition of growth", "setting": "AML cells; 100 μg/ml", "value": 53.37, "unit": "%"},
      {"measurement": "Percent inhibition of growth", "setting": "AML cells; 600 μg/ml", "value": 100.00, "unit": "%"},
      {"measurement": "% Inhibition (percent inhibition of growth)", "setting": "AML cells; single fraction, dose 100 μg/ml", "value": 54.00, "unit": "%"},
      {"measurement": "Percent inhibition of growth", "setting": "CML cells; 100 μg/ml", "value": 2.53, "unit": "%"},
      {"measurement": "Percent inhibition of growth", "setting": "CML cells; 600 μg/ml", "value": 79.50, "unit": "%"},
      {"measurement": "Destruction of PBMC of CD33+ myeloid leukemia patients (both AML and CML)", "setting": "[1]", "value": "destroyed"}
    ]}
  ]
}
